Reference: patent US20050250799A1, “Protease inhibitors for treatment of wrinkles” (priority 2004, published 2005)

Legend:
caspase 1 = molecular target: T1, caspase 1 (Homo sapiens, UniProt P29466); settings: cited from earlier work
T1 sequence (P29466 120-297 limits assumed): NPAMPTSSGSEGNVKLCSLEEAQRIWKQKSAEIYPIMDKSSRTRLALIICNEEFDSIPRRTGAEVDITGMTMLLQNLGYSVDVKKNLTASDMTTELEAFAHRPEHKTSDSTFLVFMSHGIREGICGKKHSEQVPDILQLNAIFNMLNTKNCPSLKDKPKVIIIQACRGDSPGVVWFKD
T1 sequence (P29466 317-404 limits assumed): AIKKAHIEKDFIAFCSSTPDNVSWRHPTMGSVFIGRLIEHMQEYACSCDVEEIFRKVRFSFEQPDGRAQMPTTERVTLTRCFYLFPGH

caspase 7 = molecular target: T2, caspase 7 (Homo sapiens, UniProt P55210); settings: cited from earlier work
T2 sequence (P55210 24-198 limits assumed): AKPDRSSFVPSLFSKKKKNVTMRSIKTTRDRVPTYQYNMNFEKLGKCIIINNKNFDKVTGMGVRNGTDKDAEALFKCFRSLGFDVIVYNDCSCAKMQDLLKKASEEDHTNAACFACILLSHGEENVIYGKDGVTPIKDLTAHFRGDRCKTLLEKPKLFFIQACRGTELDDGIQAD
T2 sequence (P55210 207-303 limits assumed): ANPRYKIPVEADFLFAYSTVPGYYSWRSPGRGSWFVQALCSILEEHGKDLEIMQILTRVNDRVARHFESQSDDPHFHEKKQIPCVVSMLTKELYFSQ

[1] = test system: UVB-induced wrinkle formation; assay: Example 6: UVB-induced skin wrinkling; type: in vivo, Skh-1 hairless mice; settings: UVB + 0.1% in 25% DMSO + 75% ethanol, 100 μl on back skin three times weekly, 10 weeks; category 0 (no wrinkle) to 4 (severe wrinkle)
[2] = test system: UVB-induced vessel dilation; assay: Example 6: dermal blood vessel area (CD31 staining) after UVB; type: in vivo, Skh-1 hairless mice; settings: UVB + 0.1% in 25% DMSO + 75% ethanol, 100 μl on back skin three times weekly, 10 weeks; dermis
caspase 3 = molecular target: T3, caspase 3 (Homo sapiens, UniProt P42574); settings: cited from earlier work
T3 sequence (P42574 29-175 limits assumed): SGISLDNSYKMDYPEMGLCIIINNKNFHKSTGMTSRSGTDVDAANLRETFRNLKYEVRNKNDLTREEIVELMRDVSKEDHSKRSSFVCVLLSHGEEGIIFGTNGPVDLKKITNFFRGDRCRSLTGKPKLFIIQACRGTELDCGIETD
T3 sequence (P42574 176-277 limits assumed): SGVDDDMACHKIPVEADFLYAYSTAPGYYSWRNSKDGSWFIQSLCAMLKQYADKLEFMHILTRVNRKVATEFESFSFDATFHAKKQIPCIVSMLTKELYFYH

caspase 4 = molecular target: T4, caspase 4 (Homo sapiens, UniProt P49662); settings: cited from earlier work
T4 sequence (P49662 81-270 limits assumed): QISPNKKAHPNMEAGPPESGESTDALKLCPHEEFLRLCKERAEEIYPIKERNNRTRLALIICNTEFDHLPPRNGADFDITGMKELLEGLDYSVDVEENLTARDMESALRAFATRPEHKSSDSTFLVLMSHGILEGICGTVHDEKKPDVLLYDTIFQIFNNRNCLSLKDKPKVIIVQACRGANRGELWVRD
T4 sequence (P49662 290-377 limits assumed): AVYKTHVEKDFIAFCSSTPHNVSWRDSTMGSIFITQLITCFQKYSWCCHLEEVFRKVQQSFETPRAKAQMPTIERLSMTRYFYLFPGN

back skin of mice = assay: Example 5: skin irritation score on back skin; type: in vivo, mice (FVB strain); settings: 0.1% in 25% DMSO + 75% ethanol, 5 μl on back skin, score 0 (no erythema) to 4
Procedure: The hair of the back skin of mice (FVB strain, female, 7 weeks of age, n=3/group) was clipped by an electric clipper on day 0. 5 μl of test sample solution (˜1 cm diameter) was applied on the back skin. After 24 hours (day 1), skin irritation was measured on the basis of a scoring system (0: no erythema; 1: very slight erythema; 2: well-defined erythema; 3: moderate erythema; 4: several erythema and edema) and a second dose administered. After a second 24 hours (day 2), skin irritation was measured and a third dose administered. After a third 24 hours (day 3), skin irritation was again measured.

[3] = molecular target: T5, Omi/HtrA2 (His-Omi 134-458) (Homo sapiens, UniProt O43464); settings: cited from earlier work
T5 construct: His
T5 sequence (O43464 134-458): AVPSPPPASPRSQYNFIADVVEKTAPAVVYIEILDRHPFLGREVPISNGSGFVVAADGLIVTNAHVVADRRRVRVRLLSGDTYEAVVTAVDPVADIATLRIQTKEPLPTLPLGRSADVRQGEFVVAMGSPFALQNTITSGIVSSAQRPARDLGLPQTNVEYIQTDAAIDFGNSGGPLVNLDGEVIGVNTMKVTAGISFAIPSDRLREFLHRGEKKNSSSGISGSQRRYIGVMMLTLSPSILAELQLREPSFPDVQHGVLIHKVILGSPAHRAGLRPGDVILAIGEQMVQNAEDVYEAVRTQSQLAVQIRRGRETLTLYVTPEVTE

[4] = test system: UVB-induced wrinkle formation; assay: Example 3: UVB-induced skin wrinkling; type: in vivo, hairless Skh-1 mice; settings: 100 μl on back skin three times weekly, 10 weeks, category 0 (no wrinkle) to 4 (severe wrinkle)
Procedure: (§1) Five groups of mice (7-week-old female hairless Skh-1 mice, n=3/group) were used: group 1: UVB+1% ucf-101 in DMSO; group 2: UVB+DMSO control; group 3: UVB+0.1% ucf-101 in acetone; group 4: UVB+acetone control; group 5: no UVB control.
(§2) Groups 1, 2, 3 and 4 were exposed to UVB irradiation using fluorescent lamps (Southern New England Ultraviolet) to deliver 0.35 mW/cm^2 at the dorsal skin surface of the mice. After irradiation, the indicated samples (100 μl each) for each group were applied to the back skin. This procedure was repeated three times weekly for ten weeks, to simulate chronic UVB exposure. […] The total cumulative dose was 6.54 J/cm^2 UVB.
(§3) After 10 weeks, skin wrinkling was evaluated using five categories (0: no wrinkle; 1: slight wrinkle; 2: clear wrinkle; 3: strong wrinkle; 4: severe wrinkle). Mice of group 1 and group 2 were sacrificed and back skin samples were snap-frozen in liquid nitrogen. Immunohistochemical staining was performed on 7-micrometer frozen sections using a monoclonal rat anti-mouse CD31 antibody (BD Pharmingen). Representative sections were obtained from UVB irradiated mice and were analyzed using a Nikon E-600 microscope. Images were captured with a Spot digital camera (Diagnostic Instruments), and morphometric analyses were performed using the IP-LAB software. Areas occupied by blood vessels were determined in the dermis.

[5] = test system: various other serine proteases; settings: various other serine proteases tested; cited from earlier work
mice ears [6] = assay: Example 1: effect on ear thickness (skin irritancy); type: in vivo, mice (FVB strain); settings: for Left ear thickness (mean): 10 μl on left ear
Procedure: Control thickness of mice ears (FVB strain, male, 7 weeks of age, n=3/group) was measured with a thickness gauge (Mitsutoyo Corp.). After measuring the thickness of both ears, 10 μl of ucf-101 solution (1.0% or 0.1%) was applied to the left ear and 10 μl of solvent was applied to the right ear. Ear thickness was measured for three consecutive days after administration.

[7] = test system: UVB-induced vessel dilation; assay: Example 3: dermal blood vessel area (CD31 staining) after UVB; type: in vivo, hairless Skh-1 mice; settings: UVB + 1% in DMSO, 100 μl on back skin three times weekly, 10 weeks; dermis
Procedure: as §1, §2, §3

mice ears [8] = assay: Example 4: effects of test samples on ear thickness; type: in vivo, mice (FVB strain); settings: 0.1% in 25% DMSO + 75% ethanol, 10 μl on days 0, 1, 2
Procedure: Control thickness of mice ears (FVB strain, female, 7 weeks of age, n=3/group) was measured with a thickness gauge (Mitsutoyo Corp.) on day 0. After measuring the thickness of both ears, 10 μl of test sample solution was applied to the left ear and 10 μl of solvent was applied to the right ear. After 24 hours (day 1), ear thickness was measured and a second dose administered (left ear: test solution, right ear: solvent). After a second 24 hours (day 2), ear thickness was measured and a third dose administered (left ear: test solution, right ear: solvent).

UVB-irradiated mice ears = assay: Example 2: ear thickness on UVB-exposed skin; type: in vivo, mice (Swiss Webster strain); settings: 1% in DMSO; for Left ear thickness (mean): UVB 80 mJ/cm^2, 5 μl on days 0, 1, 2
Procedure: The ear thickness of mice (Swiss Webster strain, male, 7 weeks of age, n=3/group) was measured with a thickness gauge (Mitsutoyo Corp.) on day 0. After measuring the thickness of both ears, both ears were UVB-irradiated (80 mJ/cm^2). 5 μl of 1% ucf-101 in DMSO was applied to the left ear and 5 μl of DMSO was applied to the right ear. After 24 hours (day 1), ear thickness was measured and a second dose administered (left ear 1% ucf-101 in DMSO; right ear: DMSO). After a second 24 hours (day 2), ear thickness was again measured and a third dose administered (left ear 1% ucf-101 in DMSO; right ear: DMSO). Ear thickness was then monitored over four additional consecutive days (days 3-6).

[9] = test system: caspase-9 (−/−) null fibroblasts; settings: cited from earlier work

zVAD-FMK
inhibition (caspase 1): inhibits | inhibition (caspase 7): inhibits | Wrinkle category (mean) [1]: 1.67 | Percent of vessel area (mean) [2]: 8.8% | inhibition (caspase 3): inhibits | inhibition (caspase 4): inhibits

O=C1C(=Cc2ccc(-c3ccccc3[N+](=O)[O-])o2)C(=O)N(c2ccccc2)C(=S)N1c1ccccc1 [Ucf-101]
skin irritation score (back skin of mice; day 0): 0 | skin irritation score (back skin of mice; day 1): 0 | skin irritation score (back skin of mice; day 2): 0 | skin irritation score (back skin of mice; day 3): 0 | IC50 [3]: 9.5 µM | Wrinkle category (mean) ([4]; UVB + 0.1% in acetone): 1.67 | Wrinkle category (mean) ([4]; UVB + 1% in DMSO): 1.33 | IC50 [5]: 200 µM | Left ear thickness (mean) (mice ears [6]; 0.1% in acetone, day 0 (before application)): 29.0 ×0.01 mm | Left ear thickness (mean) (mice ears [6]; 0.1% in acetone, day 1): 30.0 ×0.01 mm | Left ear thickness (mean) (mice ears [6]; 0.1% in acetone, day 2): 29.3 ×0.01 mm | Left ear thickness (mean) (mice ears [6]; 0.1% in acetone, day 3): 29.0 ×0.01 mm | irritancy (ear thickness compared to solvent alone) (mice ears [6]; 1% in DMSO or 0.1% in acetone): not an irritant | Left ear thickness (mean) (mice ears [6]; 1% in DMSO, day 0 (before application)): 28.0 ×0.01 mm | Left ear thickness (mean) (mice ears [6]; 1% in DMSO, day 1): 28.7 ×0.01 mm | Left ear thickness (mean) (mice ears [6]; 1% in DMSO, day 2): 28.7 ×0.01 mm | Left ear thickness (mean) (mice ears [6]; 1% in DMSO, day 3): 28.3 ×0.01 mm | Percent of vessel area (mean) [7]: 7.1% | Left ear thickness (mean) (mice ears [8]; day 0 (before application)): 25.7 ×0.01 mm | Left ear thickness (mean) (mice ears [8]; day 1): 26.3 ×0.01 mm | Left ear thickness (mean) (mice ears [8]; day 2): 27.3 ×0.01 mm | Left ear thickness (mean) (mice ears [8]; day 3): 28.3 ×0.01 mm | Left ear thickness (mean) (UVB-irradiated mice ears; day 0 (before UVB and application)): 31.0 ×0.01 mm | Left ear thickness (mean) (UVB-irradiated mice ears; day 1): 36.3 ×0.01 mm | Left ear thickness (mean) (UVB-irradiated mice ears; day 2): 40.0 ×0.01 mm | Left ear thickness (mean) (UVB-irradiated mice ears; day 3): 42.3 ×0.01 mm | Left ear thickness (mean) (UVB-irradiated mice ears; day 4): 42.7 ×0.01 mm | Left ear thickness (mean) (UVB-irradiated mice ears; day 5): 39.3 ×0.01 mm | Left ear thickness (mean) (UVB-irradiated mice ears; day 6): 38.3 ×0.01 mm | ear thickness (irritancy) compared to control (UVB-irradiated mice ears; UVB-exposed ears): did not increase ear thickness | Wrinkle category (mean) [1]: 1.00 | Percent of vessel area (mean) [2]: 4.7% | block of Omi/HtrA2 induced cell death [9]: block Omi/HtrA2 induced cell death

CC(C)C[C@H](CC(=O)NO)C(=O)N[C@@H](Cc1ccc2ccccc2c1)C(=O)N[C@@H](C)C(N)=O [TAPI-0]
Wrinkle category (mean) [1]: 1.00 | Percent of vessel area (mean) [2]: 8.9%

Ac-YVAD-CHO
Ki (caspase 1): ~0.01 µM | Ki (caspase 7): ≥ 50 µM | Ki (caspase 3): ≥ 50 µM | Ki (caspase 4): ~0.01 µM

NC[C@H]1CC[C@H](C(=O)O)CC1 [Tranexamic acid]
skin irritation score (back skin of mice; day 0): 0 | skin irritation score (back skin of mice; day 1): 0 | skin irritation score (back skin of mice; day 2): 0 | skin irritation score (back skin of mice; day 3): 0 | Wrinkle category (mean) [1]: 2.00 | Percent of vessel area (mean) [2]: 8.7%
